According to paper PMC9294487 (eBioMedicine, 2022):

Experiments:
[1] = target: T1, E. multilocularis DNA damage-inducible 1 protein (EmuDdi1) (Echinococcus multilocularis, UniProt A0A068Y9Y4); experiment: fluorogenic aspartyl protease assay, single concentration; format: biochemical; conditions: read-out: % inhibition at 40 μM
T1 sequence (A0A068Y9Y4 1-390): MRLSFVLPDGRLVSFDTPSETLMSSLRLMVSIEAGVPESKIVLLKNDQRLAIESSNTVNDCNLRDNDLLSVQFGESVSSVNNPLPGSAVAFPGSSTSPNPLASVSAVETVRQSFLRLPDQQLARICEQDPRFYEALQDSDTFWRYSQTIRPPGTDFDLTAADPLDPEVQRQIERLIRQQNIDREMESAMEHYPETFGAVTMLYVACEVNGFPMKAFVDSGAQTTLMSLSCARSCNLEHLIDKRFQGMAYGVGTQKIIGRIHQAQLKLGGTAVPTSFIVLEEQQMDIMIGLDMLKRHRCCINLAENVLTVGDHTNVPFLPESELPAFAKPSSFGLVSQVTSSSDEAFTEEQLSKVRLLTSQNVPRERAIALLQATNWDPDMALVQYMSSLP

[2] = target: T1, E. multilocularis DNA damage-inducible 1 protein (EmuDdi1); experiment: fluorogenic aspartyl protease assay; format: biochemical

Row | Structure (SMILES) | inhibition at 40 µM [1] [%] | IC50 [2] [µM]
1 | CC(C)(C)NC(=O)[C@@H]1C[C@@H]2CCCC[C@@H]2CN1C[C@@H](O)[C@H](Cc1ccccc1)NC(=O)[C@H](CC(N)=O)NC(=O)c1ccc2ccccc2n1 [SQV, saquinavir] | ~40 | –
2 | Cc1c(O)cccc1C(=O)N[C@@H](CSc1ccccc1)[C@H](O)CN1C[C@H]2CCCC[C@H]2C[C@H]1C(=O)NC(C)(C)C [NFV, nelfinavir] | – | 45.9
